Columns and labels:
[1] = target: T1, Peroxisome proliferator-activated receptor γ (Homo sapiens, UniProt P37231); experiment: cell-based; settings: for EC10, linear / logEC10 / EC10, linear transformed: PPARγ bioassay; for EC10, linear: linear model; for logEC10: log-logistic model; for EC10, PPARγ (M): 10% of maximum effect of rosiglitazone; for SR-ScorePPARγ: SR-Score, sigma k=1, x=5; for Specificity ratio (SRbaseline) SRPPARγ: against baseline cytotoxicity; for Specificity ratio (SRcytotoxicity) SRPPARγ: against experimental cytotoxicity; for EC10, PPARγ: effect; for log(1/EC10) PPARγ: input of the ToxPi score, values up to 1.00; for Emax: read-out: Emax%PPARγ
T1 sequence (P37231 238-505 limits assumed): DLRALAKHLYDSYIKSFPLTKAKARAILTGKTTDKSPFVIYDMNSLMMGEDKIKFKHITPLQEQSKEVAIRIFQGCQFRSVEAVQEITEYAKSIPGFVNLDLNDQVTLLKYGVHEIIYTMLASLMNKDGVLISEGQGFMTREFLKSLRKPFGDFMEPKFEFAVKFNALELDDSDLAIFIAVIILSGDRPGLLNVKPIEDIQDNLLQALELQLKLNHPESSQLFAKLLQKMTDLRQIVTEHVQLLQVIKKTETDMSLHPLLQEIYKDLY
Source text: All bioassay media components and the ERα-UAS-bla GripTite and PPARγ-UAS-bla cells were obtained from Thermo Fisher Scientific (Waltham, MA, USA). AREc32 reporter gene cells based on MCF7 were provided by C. Roland Wolf (Cancer Research UK); AhR CALUX cells (H4L7.5c2 derived from H4IIe) were provided by Michael Denison (UC Davis, USA); and SH-SY5Y cells were purchased from Sigma-Aldrich.
Cell culture conditions and bioassay protocols including response detection are provided in Text S2.1–2.4 and Table S3. − Cell viability was determined from cell confluency using an IncuCyte S3 Live-Cell Analysis System (Sartorius AG, Essen, Germany) before and after exposure, except for SH-SY5Y cells (live–dead staining with Nuclear Green LcS1 and propidium iodide, Abcam, UK). For metabolic activation experiments, cell viability was assessed using the ToxBLAzer DualScreen Kit (Thermo Fisher Scientific) to capture the remaining toxicity in ERα-UAS-bla GripTite after treatment with the aCYP catalyst (details in Text S2.4).
For ARE, the concentration that triggered an induction ratio of 1.5 (ECIR1.5) was used as the benchmark value, as detailed in Text S2.5. IC10 values also served as a threshold for data analysis in all assays; only concentrations below IC10 were considered when deriving EC10 or ECIR1.5.
The maximum efficacy (Emax%) refers to the maximum of the log–logistic concentration–response curve attained by test chemicals compared to the reference chemical’s maximum and was obtained for both ERα and PPARγ. […]
S2: Cell culture and bioassays
S2.1: Cell Culturing Conditions
All suppliers and sources are given in detail in SI-Excel S3. The bioassay media for the different assays were prepared as follows: Assay medium for ER alpha-UAS-bla GripTite (ERα) and […]
2% charcoal-stripped FBS, and 100 U/mL penicillin-streptomycin. […]
S2.2: Cell Seeding and Incubation. For all bioassays, cell suspensions in the respective assay medium were dispensed into each well of 384-well plates using a MultiFlo Dispenser (Biotek, (now Agilent), Winooski, VT, U.S.). After seeding, the plates were incubated at 37° C and 5% CO₂ for […]. The final cell densities and plate types were as follows: Black poly-D-lysine […]
6500 cells/well, ERα: 5000 cells/well. White 384-well plates with a clear bottom (Product No. […]
S2.3: Chemical Dosing and Assay Analysis Procedures.

physchem = settings: for Double negative form (pH = 7.40) / Negative form (pH = 7.40) / Neutral form (pH = 7.40) / αneutral % (fraction of neutral species): from experimental pKa; for αneutral % (fraction of neutral species): pH 7.4; for pKa: pKa (Acid)
Description: Physicochemical properties provide input parameters for the baseline toxicity model. Acidity constants (pK a) and octanol–water partition constants of the neutral species (K ow) were measured with a Sirius T instrument from Pion Inc. (Sussex, UK) (Text S1.2 and Table S1). A detailed description of the pK a and K ow measurements can be found in literature. , […]
S1.2: pKa and log Kow measurements […]
titrator (Pion Inc., Sussex, U.K.). A detailed description of the experimental procedure is available in the literature.1 In brief, each sample was prepared by mixing 5 µL of a 10 mM dimethyl sulfoxide (DMSO) stock solution with 25 µL of a phosphate buffer solution (14.4 mM […]
A reference vial containing 5 µL of DMSO
(Roth, A994-100 ML) and 25 µL of phosphate buffer was analyzed alongside each sample.
The pKa values were determined using the automated UV-metric pKa protocol within the Sirius T3 Control software (version 2.0.0.0.). Each sample was subjected to three consecutive […]
from 2 to 12 by stepwise addition of 0.5 M HCl or 0.5 M potassium hydroxide while recording […]
UV absorbance. […]
To ensure reproducibility, measurements were conducted on at least two

[2] = phosphate buffer with […] KCl, Sirius T3 titrator, experimental, this study
[3] = phosphate buffer with […] KCl, Sirius T3 titrator, second pKa column, experimental, this study

| Structure (SMILES) | EC10, linear ([1]; dosing range all) | logEC10 ([1]; dosing range all) | Double negative form (pH = 7.40) (physchem) [%] | Negative form (pH = 7.40) (physchem) [%] | Neutral form (pH = 7.40) (physchem) [%] | αneutral % (fraction of neutral species) (physchem) [%] | EC10, PPARγ (M) [1] | SR-ScorePPARγ [1] | Specificity ratio (SRbaseline) SRPPARγ [1] | Specificity ratio (SRcytotoxicity) SRPPARγ [1] | EC10, PPARγ [1] [nM] | log(1/EC10) PPARγ [1] | Emax [1] [%] | pKa (physchem; [2]) | EC10, linear transformed ([1]; dosing range all) | pKa (physchem; [3]) | other results |
| --- | --- | --- | --- | --- | --- | --- | --- | --- | --- | --- | --- | --- | --- | --- | --- | --- | --- |
| O=S(=O)(c1ccc(O)cc1)c1ccc(O)cc1 [BPS, 4,4'-Sulfonyldiphenol] | 1.02E-05 | no effect | 9 | 52 | 39 | 39 | – | – | – | – | – | – | – | – | – | – | pKa (Acid) (physchem): 8.16; pKa (physchem): 7.28 |
| O=S(=O)(c1ccc(O)cc1)c1ccc(OCc2ccccc2)cc1 [BPS-MPE, 4-[4-(benzyloxy)benzenesulfonyl]phenol] | – | – | – | 32 | 68 | 68 | 2.35 × 10^–7 M | 1.00 | 49.84 | 570.13 | 235 | 0.94 | 25 | 7.73 | – | – | EC10, linear transformed ([1]; dosing range high): 1.15E-09; EC10, linear ([1]; dosing range high): 1.01E-07; logEC10 ([1]; dosing range high): -8.94; EC10, linear transformed ([1]; dosing range low): 2.35E-07; EC10, linear ([1]; dosing range low): 4.02E-07; logEC10 ([1]; dosing range low): -6.63 |
| Oc1ccc(Sc2ccc(O)cc2)cc1 [BPT, 4,4'-Thiodiphenol] | 1.48E-06 | -6.02 | 0.0324 | 4.47 | 96 | 96 | 9.61 × 10^–7 M | 1.00 | – | – | 961 | 0.85 | 20 | 8.73 | 9.61E-07 | 9.54 | – |
| Cc1ccc(S(=O)(=O)NC(=O)Nc2ccc(Cc3ccc(NC(=O)NS(=O)(=O)c4ccc(C)cc4)cc3)cc2)cc1 [BTUM, 4,4'-Bis(p-tolylsulfonylureido)diphenylmethane] | 2.64E-07 | -6.59 | 99.53 | 0.47 | 0.0007 | 0.0007 | 2.56 × 10^–7 M | 1.00 | 110.22 | 121.09 | 256 | 0.93 | 47 | 4.59 | – | 5.07 | SR (PPARγ) ([1]; specificity ratio): 121 |
| COC(=O)C(c1ccc(O)cc1)c1ccc(O)cc1 [Bz, Methyl bis(4-hydroxyphenyl)acetate] | no effect | no effect | 3 | 26 | 71 | 71 | – | – | – | – | – | – | – | 7.83 | – | 8.34 | – |
| O=C(OCc1ccccc1)c1ccc(O)cc1 [BzPB, Benzyl 4-hydroxybenzoate] | 2.87E-06 | -5.69 | – | 0.599 | 99 | 99 | 2.04 × 10^–6 M | 1.00 | 8.14 | 22.95 | 2040 | 0.80 | 16 | 9.62 | 2.04E-06 | – | – |
| CC(C)Oc1ccc(S(=O)(=O)c2ccc(O)cc2)cc1 [D8, 4-((4-Isopropoxyphenyl)sulfonyl)phenol] | 5.40E-06 | no effect | – | 39 | 61 | 61 | – | – | – | – | – | – | – | 7.6 | – | – | – |
| Cc1ccc(S(=O)(=O)NC(=O)Nc2cccc(OS(=O)(=O)c3ccc(C)cc3)c2)cc1 [Pergafast, N-(p-toluenesulfonyl)-N'-(3-(p-toluenesulfonyloxy)phenyl)urea] | 9.42E-07 | -6.17 | – | 100 | 0.089 | 0.089 | 6.71 × 10^–7 M | 1.00 | 77.74 | 28.39 | 671 | 0.87 | 16 | 4.35 | 6.71E-07 | – | – |
| CC(C)(c1cc(Cl)c(O)c(Cl)c1)c1cc(Cl)c(O)c(Cl)c1 [TCBPA, 2,2',6,6'-Tetrachlorobisphenol A] | – | – | 11 | 60 | 29 | 29 | – | 1.00 | – | – | 155 | 0.96 | 32 | – | – | – | EC10, linear transformed ([1]; dosing range high): 4.16E-08; EC10, linear ([1]; dosing range high): 7.40E-08; logEC10 ([1]; dosing range high): -7.38; EC10, linear transformed ([1]; dosing range low): 1.55E-07; EC10, linear ([1]; dosing range low): 1.92E-07; logEC10 ([1]; dosing range low): -6.81; pKa (Acid) (physchem): 8.13; pKa (physchem): 7.08 |

— PMC12392461, “Beyond Estrogenicity: A Comparative Assessment of Bisphenol A and Its Alternatives in In Vitro Assays Questions Safety of Replacements” (Environmental Science & Technology, 2025)
